According to patent US11000710B2, “Composition and method for the generation of chlorine dioxide from the oxidative consumption of biomolecules” (priority 2009, dated 2021):

Test: Level of HClO2 and ClO2^• producible from ClO2^− as a function of pH
Format: physicochemical

Compound	total ClO2^• producible, maximum percentage of total oxyhalogen oxidant (pH 4.50) [%]	total ClO2^• producible, maximum percentage of total oxyhalogen oxidant (pH 7.00) [%]	level of HClO2 generated, of total available oxyhalogen oxidant (pH 4.50) [%]	level of HClO2 generated, of total available oxyhalogen oxidant (pH 7.00) [%]
[O][Cl+][O-] [ClO2^•, chlorine dioxide]	≤ 0.32	≤ 0.0010	–	–
[O-][Cl+]O [HClO2]	–	–	0.64	0.0020
